Measured values from patent US6355464B1, “M. tuberculosis RNA polymerase alpha subunit” (Anadys Pharmaceuticals, Inc., priority 1996, dated 2002).

Biological target: M. tuberculosis RNA polymerase (Mycobacterium tuberculosis, UniProt P9WGY7+P9WGY9+P9WGZ1)
Assay: In vitro (cell-free) high-throughput transcription screen with reconstituted RNA polymerase and T101 promoter template
Format: biochemical
Conditions: rifampicin at 30 nM; control compound; TCA-precipitated [α-32P]-UTP-labelled RNA, 30 min at 25° C.
Description: High-throughput screens for anti-tuberculosis agents may be performed using either an in vitro or in vivo format. In either case, the ability of test compounds to inhibit M. tuberculosis RNA polymerase-driven transcription of M. tuberculosis promoters is tested. Typically, a strong promoter such as T101 is used for the test reactions. The sequence of the T101 promoter is: identified by SEQ. ID. NO. 15 and read as follows.
The following procedure is used for cell-free high-throughput screening. A Tomtec Quadra 96-well pipetting station is used to add the reaction components to polypropylene 96-well dishes. 5 μl aliquots of test compounds dissolved in DMSO (or DMSO alone as a control) are added to wells. This is followed by 20 μl of the RNA polymerase mixture, which consists of: 10 mM DTT, 200 mM KCl, 10 mM Mg^+2, 1.5 μM bovine serum albumin, and 0.25 μg reconstituted RNA polymerase. […]
After incubation for 30 min at 25° C., the reaction is stopped by addition of 150 μl 10% trichloroacetic acid (TCA). […] The wells of the microtiter plate and the filter are washed twice with 5% TCA and bound radioactivity is determined usinjg a Wallac microbeta 1450 scintillation counter. Inhibitory activity due to the test compound is calculated according to the formula: [formula] […]

Sequence of M. tuberculosis RNA polymerase (P9WGY7 whole entry, looked up): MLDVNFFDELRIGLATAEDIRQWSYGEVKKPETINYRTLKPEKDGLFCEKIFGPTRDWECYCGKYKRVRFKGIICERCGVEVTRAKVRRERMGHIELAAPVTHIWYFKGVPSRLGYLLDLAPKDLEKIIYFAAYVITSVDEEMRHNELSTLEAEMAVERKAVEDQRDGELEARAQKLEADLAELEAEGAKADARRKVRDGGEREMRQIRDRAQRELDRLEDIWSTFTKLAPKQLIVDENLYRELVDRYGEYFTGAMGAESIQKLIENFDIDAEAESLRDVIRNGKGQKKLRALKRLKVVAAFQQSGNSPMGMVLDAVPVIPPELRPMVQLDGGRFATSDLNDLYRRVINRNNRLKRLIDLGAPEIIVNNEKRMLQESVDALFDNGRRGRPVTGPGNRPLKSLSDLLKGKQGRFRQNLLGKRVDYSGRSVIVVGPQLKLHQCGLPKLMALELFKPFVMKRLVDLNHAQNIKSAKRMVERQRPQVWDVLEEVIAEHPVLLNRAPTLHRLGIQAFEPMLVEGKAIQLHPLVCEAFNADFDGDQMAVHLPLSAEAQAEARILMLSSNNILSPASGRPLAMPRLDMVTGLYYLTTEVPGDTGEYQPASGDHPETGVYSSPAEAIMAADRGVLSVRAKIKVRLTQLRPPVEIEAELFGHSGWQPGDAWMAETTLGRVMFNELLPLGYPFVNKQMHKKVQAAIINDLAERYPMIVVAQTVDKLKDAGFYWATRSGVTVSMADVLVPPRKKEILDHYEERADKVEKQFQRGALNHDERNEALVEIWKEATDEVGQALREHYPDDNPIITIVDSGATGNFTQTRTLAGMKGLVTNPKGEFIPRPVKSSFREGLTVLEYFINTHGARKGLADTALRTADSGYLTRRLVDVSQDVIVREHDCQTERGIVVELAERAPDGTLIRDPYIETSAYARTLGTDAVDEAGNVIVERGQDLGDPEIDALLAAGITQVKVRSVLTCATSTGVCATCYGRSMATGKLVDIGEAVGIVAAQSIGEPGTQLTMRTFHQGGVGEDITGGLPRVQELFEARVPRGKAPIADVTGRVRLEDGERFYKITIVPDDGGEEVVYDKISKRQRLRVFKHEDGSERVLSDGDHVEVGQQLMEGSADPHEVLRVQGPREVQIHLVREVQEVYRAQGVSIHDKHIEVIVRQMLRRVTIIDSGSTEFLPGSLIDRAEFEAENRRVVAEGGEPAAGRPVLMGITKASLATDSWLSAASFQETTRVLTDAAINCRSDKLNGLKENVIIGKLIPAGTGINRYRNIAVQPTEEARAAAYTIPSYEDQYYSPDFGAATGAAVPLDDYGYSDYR
Sequence of M. tuberculosis RNA polymerase (P9WGY9 whole entry, looked up): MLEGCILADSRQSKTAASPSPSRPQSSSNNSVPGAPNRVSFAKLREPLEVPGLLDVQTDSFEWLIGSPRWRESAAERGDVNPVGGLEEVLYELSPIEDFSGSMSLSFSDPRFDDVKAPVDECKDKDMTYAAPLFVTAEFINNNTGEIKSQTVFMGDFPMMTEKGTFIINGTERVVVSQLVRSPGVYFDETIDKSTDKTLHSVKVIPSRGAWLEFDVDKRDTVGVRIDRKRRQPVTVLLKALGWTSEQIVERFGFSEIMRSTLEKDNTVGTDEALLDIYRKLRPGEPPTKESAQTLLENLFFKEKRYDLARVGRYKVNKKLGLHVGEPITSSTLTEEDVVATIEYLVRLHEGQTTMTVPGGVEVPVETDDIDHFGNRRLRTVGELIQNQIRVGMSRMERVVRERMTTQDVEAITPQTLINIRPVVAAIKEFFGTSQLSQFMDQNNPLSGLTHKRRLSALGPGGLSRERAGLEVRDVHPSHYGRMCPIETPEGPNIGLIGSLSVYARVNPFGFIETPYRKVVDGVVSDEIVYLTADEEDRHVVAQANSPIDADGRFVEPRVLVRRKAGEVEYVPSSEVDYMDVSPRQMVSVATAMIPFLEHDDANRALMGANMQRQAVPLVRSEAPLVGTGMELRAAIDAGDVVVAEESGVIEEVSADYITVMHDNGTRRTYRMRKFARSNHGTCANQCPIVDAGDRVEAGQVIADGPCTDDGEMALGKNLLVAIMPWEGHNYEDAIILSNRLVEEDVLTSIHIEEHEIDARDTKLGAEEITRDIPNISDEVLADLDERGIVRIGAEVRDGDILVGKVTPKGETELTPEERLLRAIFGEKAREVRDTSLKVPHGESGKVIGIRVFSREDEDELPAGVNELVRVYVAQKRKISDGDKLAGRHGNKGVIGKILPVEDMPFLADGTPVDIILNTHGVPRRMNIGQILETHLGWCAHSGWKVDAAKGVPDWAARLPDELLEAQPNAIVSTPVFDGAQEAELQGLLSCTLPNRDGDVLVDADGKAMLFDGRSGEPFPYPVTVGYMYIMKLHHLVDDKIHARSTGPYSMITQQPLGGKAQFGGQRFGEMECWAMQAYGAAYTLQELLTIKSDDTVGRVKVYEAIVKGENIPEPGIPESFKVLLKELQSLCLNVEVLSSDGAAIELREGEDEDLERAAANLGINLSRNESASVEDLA
Sequence of M. tuberculosis RNA polymerase (P9WGZ1 whole entry, looked up): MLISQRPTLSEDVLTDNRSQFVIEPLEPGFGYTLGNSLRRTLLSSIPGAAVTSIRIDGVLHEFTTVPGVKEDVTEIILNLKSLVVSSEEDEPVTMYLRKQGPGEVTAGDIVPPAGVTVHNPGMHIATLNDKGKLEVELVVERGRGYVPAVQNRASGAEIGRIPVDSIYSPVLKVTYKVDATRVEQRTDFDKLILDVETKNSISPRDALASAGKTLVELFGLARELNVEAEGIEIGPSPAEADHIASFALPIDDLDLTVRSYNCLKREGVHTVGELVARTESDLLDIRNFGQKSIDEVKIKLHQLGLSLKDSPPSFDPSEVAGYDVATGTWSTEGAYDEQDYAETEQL

CO[C@H]1/C=C/O[C@@]2(C)Oc3c(C)c(O)c4c(O)c(c(/C=N/N5CCN(C)CC5)c(O)c4c3C2=O)NC(=O)/C(C)=C\C=C\[C@H](C)[C@H](O)[C@@H](C)[C@@H](O)[C@@H](C)[C@H](OC(C)=O)[C@@H]1C [rifampicin]
inhibition of transcription: 50-75%
